Test results reported in patent US7264314B2, “Adrenocorticotropic hormone analogs and related methods” (priority 2004, dated 2007).

Columns and labels:
[1] = system: ACTH-induced serum corticosterone in dexamethasone-suppressed mice; experiment: in vivo Serum Corticosteroid Inhibition Assay; design: species or system FVB/N mice; details: peptide alone 120 minutes after dexamethasone, blood one hour later
Description: An in vivo Serum Corticosteroid Inhibition Assay measures the level of corticosteroid or corticosterone in the blood stream of a subject after administering a compound having a first corticosteroid-producing biological activity and a test compound. The compound having the corticosteroid-producing biological activity can be any compound known to induce a detectable increase in corticosteroid production. The test compound can be administered before the corticosteroid-producing compound, in combination with the corticosteroid-producing compound, and/or after the corticosteroid-producing compound. The corticosteroid-producing compound is preferably ACTH, but can also be an ACTH analog with a known corticosteroid-producing biological activity. By performing a series of in vivo Serum Corticosteroid Inhibition Assays using ACTH analog test compounds, ACTH analogs that inhibit the production of corticosteroid relative to the corticosteroid-producing compound used can be identified. Preferably, the ACTH analogs identified in this manner inhibit the production of corticosteroid in the presence of endogenous unmodified ACTH.
The in vivo Serum Corticosteroid Inhibition Assay can include sequential administration of the test compound and the corticosteroid-producing compound by the following steps: first, an agent to suppress endogenous ACTH production was administered to a mouse subject, such as an intraperitoneal injection of dexamethasone; second, after waiting a suitable period of time for suppression of endogenous ACTH production (e.g., 1.5–2.0 hours), a test compound was administered to the mouse by a suitable method, such as intraperitoneal injection; third, after waiting a suitable period of time (e.g., 1 hour) for action of the test compound, a compound with corticosteroid-producing activity can be administered to the mouse by a suitable method, such as intraperitoneal injection; and fourth, after waiting a suitable period of time for the biological activity of both administered compounds to occur (e.g., 1 hour), a blood sample was taken from the subject and the level of serum corticosterone was determined by a suitable method, such as a competitive radioimmunoassay using ^125I RIA kit (ICN, Costa Mesa, Calif.). Optionally, steps two and three can be reversed (administering the corticosteroid-producing compound first, followed by administration of the test compound). The in vivo Serum Corticosteroid Inhibition Assay can also include co-administration of the test compound and the corticosteroid-producing compound by the following steps: first, an agent to suppress endogenous ACTH production was administered to a mouse subject, such as an intraperitoneal injection of dexamethasone; second, after waiting a suitable period of time for suppression of endogenous ACTH production (e.g., 1.5–2.0 hours), the corticosteroid-producing compound and a test compound were co-administered to the mouse by a suitable method, such as intraperitoneal injection; and third, after waiting a suitable period of time for the biological activity of both administered compounds to occur (e.g., 1 hour), a blood sample was taken from the subject and the level of serum corticosterone was determined by a suitable method, such as a competitive radioimmunoassay using ^125I RIA kit (ICN, Costa Mesa, Calif.). Also, in some embodiments, the first step in any in vivo Serum Corticosteroid Inhibition Assay can be replaced by a measurement of the initial endogenous corticosteroid or corticosteroid level in the blood of the subject in the manner of step four, instead of administering the agent to suppress ACTH production. Example 2 describes murine in vivo Serum Corticosteroid Inhibition Assays in detail.
A series of separate in vivo Serum Corticosteroid Inhibition Assays were performed to identify ACTH analogs that inhibit ACTH adrenal hormone production in vivo. […]

[2] = in vivo; cited from earlier work
[3] = molecular target: T1, adrenal ACTH receptors such as MC-2R (explanted adrenal membrane) (Mus musculus, UniProt Q64326); experiment: in vitro Serum-free Adrenal Competitive Binding Assay; design: species or system mice; details: cold peptide at 10 nM, 100 nM, 1000 nM
T1 construct: the adrenal halves were macerated or otherwise dissociated using Dounce Homogenizer to form a membrane fraction; from tissue; host or cells: membrane fraction of explanted mouse adrenal glands
T1 sequence (Q64326 whole entry): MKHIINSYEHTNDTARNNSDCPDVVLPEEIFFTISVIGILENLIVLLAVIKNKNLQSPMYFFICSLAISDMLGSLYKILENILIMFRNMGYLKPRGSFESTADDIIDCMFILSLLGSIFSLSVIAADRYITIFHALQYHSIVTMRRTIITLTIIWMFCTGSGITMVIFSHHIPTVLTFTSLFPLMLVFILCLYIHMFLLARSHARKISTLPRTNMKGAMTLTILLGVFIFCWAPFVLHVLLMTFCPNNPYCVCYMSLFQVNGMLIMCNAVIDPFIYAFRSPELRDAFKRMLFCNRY
T1 sequence (Q9D159 whole entry partner): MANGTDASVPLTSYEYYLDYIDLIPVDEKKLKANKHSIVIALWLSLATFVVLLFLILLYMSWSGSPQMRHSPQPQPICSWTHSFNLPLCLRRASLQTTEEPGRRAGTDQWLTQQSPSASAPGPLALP
Description: ACTH analog compounds that bind to adrenal membrane with a greater affinity than endogenous unmodified ACTH, and are able to displace unmodified ACTH can be identified using an in vitro Serum-free Adrenal Competitive Binding Assay (Example 3). […] A higher CPM level indicates the presence of greater amounts of the radiolabelled compound. […] Column 220 indicates the level of radio-labeled unmodified mACTH(1–24) detected after combining the explanted adrenal membrane with only the radio-labeled mACTH(1–24) for 2 hours.(no competitive binding). Columns 230, 240, and 250 show the results of competitive binding assays for binding of non-radio-labeled (“cold”) mACTH(1–24) to displace the radio-labeled mACTH(1–24) from the explanted adrenal membrane (measured in column 220) by competitive binding to receptors such as MC-2R on the adrenal membrane. […]
ACTH analogs with the ability to bind adrenal receptors with a greater affinity than compounds with known adrenal binding activity (preferably ACTH) can also be identified by performing an in vitro Adrenal Competitive Binding Assay, whereby measurement of the reduction in the amount of the radiolabelled adrenal-binding compound (e.g., ACTH) is measured at various concentrations of non-radio-labeled ACTH analog test compound in a medium containing explanted adrenal membrane. […]

N-Ser^1-Tyr-Ser-Met-Glu^5-His-Phe-Arg-Trp-Gly^10-Lys-Pro-Val-Gly-Lys^15-Lys-Arg-Arg-Pro-Val^20-Lys-Val-Tyr-Pro-Ac [mACTH(1–24), reference compound]
serum corticosterone level at 180 minutes [1]: 500 ± 76 ng/mL
serum corticosterone level at 180 minutes ([1]; listed as ACTH): 500 ± 76 ng/mL
half life in blood [2]: less than 20 minutes
displacement of radio-labeled mACTH(1–24) from explanted adrenal membrane (CPM) [3]: displacement of the radio-labeled mACTH(1–24)
